# “Also recorded” adds a separate entry of the source. Like-named read-outs stand apart in the source and are kept apart here.
# Key:
# full length (ER)α = molecular target: T1, full length (ER)α (Homo sapiens, UniProt P03372); experiment: Estrogen receptor binding assay (spin column, [3H]estradiol competition), (ER)α
# T1 construct: purchased PanVera Corp, Madison, Wis., USA
# T1 sequence (P03372 1-595): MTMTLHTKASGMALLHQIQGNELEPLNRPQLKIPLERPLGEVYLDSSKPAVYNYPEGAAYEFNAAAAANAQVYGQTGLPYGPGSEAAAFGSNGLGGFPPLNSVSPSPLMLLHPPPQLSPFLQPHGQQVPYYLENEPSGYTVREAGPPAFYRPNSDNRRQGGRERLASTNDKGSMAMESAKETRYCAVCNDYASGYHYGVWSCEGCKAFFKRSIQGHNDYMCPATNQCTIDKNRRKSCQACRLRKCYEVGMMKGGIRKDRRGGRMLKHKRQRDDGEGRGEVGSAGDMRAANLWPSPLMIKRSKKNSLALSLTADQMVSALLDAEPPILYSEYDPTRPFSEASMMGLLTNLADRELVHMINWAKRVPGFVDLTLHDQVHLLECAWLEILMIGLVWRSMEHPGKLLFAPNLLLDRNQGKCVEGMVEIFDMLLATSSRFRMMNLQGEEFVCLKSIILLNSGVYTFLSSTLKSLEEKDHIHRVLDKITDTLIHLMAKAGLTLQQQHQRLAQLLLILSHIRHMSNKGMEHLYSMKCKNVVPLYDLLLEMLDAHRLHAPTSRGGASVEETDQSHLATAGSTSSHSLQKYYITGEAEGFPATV
# full length (ER)β = molecular target: T2, full length (ER)β (Homo sapiens, UniProt Q92731); experiment: Estrogen receptor binding assay (spin column, [3H]estradiol competition), (ER)β
# T2 construct: to full length (ER)α or (ER)β*; purchased PanVera Corp, Madison, Wis., USA
# T2 sequence (Q92731 whole entry): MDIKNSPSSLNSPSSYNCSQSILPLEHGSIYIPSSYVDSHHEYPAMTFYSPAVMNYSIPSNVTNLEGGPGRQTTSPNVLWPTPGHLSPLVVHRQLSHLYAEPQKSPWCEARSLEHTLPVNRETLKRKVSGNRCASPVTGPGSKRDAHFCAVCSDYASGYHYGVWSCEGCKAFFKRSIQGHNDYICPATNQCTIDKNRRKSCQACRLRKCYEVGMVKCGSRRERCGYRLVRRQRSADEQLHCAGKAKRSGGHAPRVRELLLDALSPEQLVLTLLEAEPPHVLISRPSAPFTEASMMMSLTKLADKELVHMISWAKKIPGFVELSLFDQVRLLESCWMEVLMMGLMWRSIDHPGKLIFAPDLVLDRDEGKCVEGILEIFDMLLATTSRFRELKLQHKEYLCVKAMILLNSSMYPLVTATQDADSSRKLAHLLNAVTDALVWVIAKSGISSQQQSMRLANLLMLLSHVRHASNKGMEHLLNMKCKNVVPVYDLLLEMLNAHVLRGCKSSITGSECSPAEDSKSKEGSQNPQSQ
# [1] = tested on: GABAB receptor-mediated outward current in hypothalamic arcuate (dopamine, POMC) neurons; membrane associated estrogen receptor; experiment: Whole-cell patch voltage clamp: baclofen-induced GABAB response (GIRK outward current) in hypothalamic arcuate neurons; format: cell-based, guinea pig
# [2] = tested on: uteri of ovariectomized C57BL/6 mice; experiment: Uterine size and weight in ovariectomized mice (uterotropic action); format: in vivo; conditions: 1 μg daily for 2 days, compared with oil vehicle
# Protocol: Wild-type C57BL/6 mice in these studies were obtained from Jackson laboratories. All animals were maintained under controlled temperature (25° C.) and photoperiod conditions (14-h light, 10-h dark; lights on between 0700 and 2100) with food and water ad libitum. Adult mice were ovariectomized under isoflurane anesthesia, and allowed to recover for 1 week. […] The uteri were collected, weighed and fixed in 4% paraformaldehyde for later histological analysis (data not shown).
# [3] = 10 μM (PD98059 in the pipette), together with 17β-estradiol
compound,measurement,setting,value
4-hydroxytamoxifen,Relative binding affinity (ER)α,full length (ER)α,36%
same,Relative binding affinity (ER)β,full length (ER)β,43%
same,block of the baclofen response,[1],25%
same,effect on the baclofen response (in words),[1],behave like 17β-estradiol
17β-estradiol 17-hemisuccinate: BSA [17β-estradiol-BSA],effect on the baclofen response (in words),"[1]; 100 nM, substance alone",fully efficacious in inhibiting the baclofen response; also recorded: inhibited the baclofen response; also recorded: identical response to free 17β-estradiol
C[C@]12CC[C@@H]3c4ccc(O)cc4CC[C@H]3[C@@H]1CC[C@H]2O [17α-estradiol],effect on the baclofen response (in words),"[1]; 1 μM, substance alone",no effect; also recorded: inactive; also recorded: no effects were observed
C[C@]12CC[C@@H]3c4ccc(O)cc4CC[C@H]3[C@@H]1CC[C@@H]2O [17β-estradiol],R2/R1 (second over first baclofen response),[1],58.6±3.4%
same,decrease in the response to a second application of baclofen (GABAB outward current),[1],41%
same,effect on the baclofen response (in words),"[1]; 100 nM, substance alone",no effect
"O=C(O)CN(CC(=O)O)c1ccccc1OCCOc1ccccc1N(CC(=O)O)CC(=O)O [BAPTA, 1,2-bis-(o-aminophenoxyethane)-N,N,N′,N′-tetraacetic acid]",effect on the 17β-estradiol attenuation of the baclofen response (in words),"[1]; 10 mM in the internal solution replacing EGTA, with 17β-estradiol",still observed
"CN(C)CCCn1cc(C2=C(c3c[nH]c4ccccc34)C(=O)NC2=O)c2ccccc21.Cl [BIS, bisindolylmaleimide I hydrochloride]",effect on the 17β-estradiol attenuation of the baclofen response (in words),[1],nearly eliminated the effects of 17β-estradiol
Cl.Cl.O=S(=O)(NCCNC/C=C/c1ccc(Br)cc1)c1cccc2cnccc12 [Compound H89],effect on the 17β-estradiol attenuation of the baclofen response (in words),[1]; [3],blocked
N#CC(=C(/N)Sc1ccccc1N)/C(C#N)=C(/N)Sc1ccccc1N [Compound U0126],effect on the 17β-estradiol attenuation of the baclofen response (in words),"[1]; 5 μM, with 17β-estradiol",did not affect 17β-estradiol inhibition of baclofen responses
COc1ccc2c(c1)CC[C@@H]1[C@@H]2CC[C@]2(C)[C@@H](NCCCCCCN3C(=O)C=CC3=O)CC[C@@H]12 [Compound U73122],effect on the 17β-estradiol attenuation of the baclofen response (in words),[1]; [3],blocked
COc1ccc2c(c1)CC[C@@H]1[C@@H]2CC[C@]2(C)[C@@H](NCCCCCCN3C(=O)CCC3=O)CC[C@@H]12 [Compound U73343],effect on the 17β-estradiol attenuation of the baclofen response (in words),[1]; [3],no effect
CC/C(=C(\c1ccccc1)c1ccc(/C=C/C(=O)O)cc1)c1ccccc1 [GW-5638],effect on the baclofen response (in words),"[1]; 1 μM, substance alone",significantly more efficacious than 17β-estradiol; also recorded: behave like 17β-estradiol
Cn1c2ccccc2c2c3c(c4c5ccccc5n(CCC#N)c4c21)CNC3=O [Gö6976],effect on the 17β-estradiol attenuation of the baclofen response (in words),"[1]; concentration not given, with 17β-estradiol",without effect
"C[C@]12CC[C@@H]3c4ccc(O)cc4C[C@@H](CCCCCCCCC[S+]([O-])CCCC(F)(F)C(F)(F)F)[C@H]3[C@@H]1CC[C@@H]2O (some centres unmarked) [ICI 182,780]",effect on the baclofen response (in words),"[1]; 1 μM, substance alone",no effect
same,effect on the 17β-estradiol attenuation of the baclofen response (in words),"[1]; 1 μM, together with 17β-estradiol (100 nM)",blocked
same,effect on the 17β-estradiol attenuation of the baclofen response (in words),"[1]; 1 μM, together with 17β-estradiol (100 nM), listed as ICI-182,780",antagonizes the 17β-estradiol response
COc1cccc(-c2cc(=O)c3ccccc3o2)c1N [PD98059],effect on the 17β-estradiol attenuation of the baclofen response (in words),[1]; [3],did not affect 17β-estradiol inhibition of baclofen responses
same,"R2/R1 (second over first baclofen response), substance + 17β-estradiol",[1]; substance 10 μM in the pipette together with 17β-estradiol,66.1±11.8%
"O=C(c1ccc(OCCN2CCCCC2)cc1)c1c(-c2ccc(O)cc2)sc2cc(O)ccc12 [Raloxifene, raloxifene]",effect on the baclofen response (in words),[1],completely mimicked the actions of 17β-estradiol; also recorded: behave like 17β-estradiol
Nc1ncnc2c1ncn2[C@@H]1O[C@@H]2COP(O)(=S)O[C@H]2[C@H]1O (some centres unmarked) [Rp-cAMP],effect on the 17β-estradiol attenuation of the baclofen response (in words),"[1]; 200 μM, intracellular dialysis, with 17β-estradiol",abolished
"CC/C(=C(\c1ccccc1)c1ccc(OCCN(C)C)cc1)c1ccccc1 [Tamoxifen, tamoxifen]",effect on the 17β-estradiol attenuation of the baclofen response (in words),[1],did not attenuate the effects of 17β-estradiol
same,effect on the baclofen response (in words),[1],inactive
C[C@]12CC[C@@H]3c4ccc(OC(=O)c5ccccc5)cc4CC[C@H]3[C@@H]1CC[C@@H]2O [estradiol benzoate],uterine size,[2],noticeable increase in uterine size
CC(=O)c1c(O)c(C)c(O)c(Cc2c(O)c3c(c(C(=O)/C=C/c4ccccc4)c2O)OC(C)(C)C=C3)c1O [rottlerin],effect on the 17β-estradiol attenuation of the baclofen response (in words),[1],completely blocked
Ac-LGLNLKEYNLV-OH [Gq peptide],effect on the 17β-estradiol attenuation of the baclofen response (in words),[1],significantly blocked
